The structures appear in SMILES notation.

The target in one assay is T1, human DGAT1 (Homo sapiens, UniProt O75907).
T1 construct: made in house; host or cells: Sf9 insect cells (baculovirus), membrane fraction
T1 sequence (O75907 1-488): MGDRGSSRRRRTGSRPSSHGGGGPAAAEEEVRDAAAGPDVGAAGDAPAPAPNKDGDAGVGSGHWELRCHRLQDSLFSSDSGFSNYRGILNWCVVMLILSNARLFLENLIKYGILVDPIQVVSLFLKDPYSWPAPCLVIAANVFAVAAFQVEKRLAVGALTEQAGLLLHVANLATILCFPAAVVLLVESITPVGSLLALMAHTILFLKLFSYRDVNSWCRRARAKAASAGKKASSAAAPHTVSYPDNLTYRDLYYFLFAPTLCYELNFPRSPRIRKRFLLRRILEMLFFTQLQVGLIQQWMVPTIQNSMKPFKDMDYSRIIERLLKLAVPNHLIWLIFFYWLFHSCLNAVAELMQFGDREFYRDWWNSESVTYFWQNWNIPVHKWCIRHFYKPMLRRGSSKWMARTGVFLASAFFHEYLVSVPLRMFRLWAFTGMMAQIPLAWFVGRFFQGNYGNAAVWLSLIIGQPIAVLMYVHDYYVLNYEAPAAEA
Briefly: Human Enzyme Assay (DGAT1 inhibition, 14C oleoyl CoA incorporation into triolein). It counts as biochemical. To be noted: human DGAT1 expressed in sf9 insect cell membranes; Examples 5 to 24; rounded to 2 decimal places. As to the method:
Briefly, sf9 cells were infected with recombinant baculovirus containing human DGAT1 coding sequences and harvested after 48 h. Cells were lysed by sonication and membranes isolated by centrifuging at 28000 rpm for 1 h at 4° C. on a 41% sucrose gradient. The membrane fraction at the interphase was collected, washed, and stored in liquid nitrogen.
The reaction was started by adding ^14C oleoyl coenzyme A (30 μM final concentration) and incubated at room temperature for 30 minutes. The reaction was stopped by adding 200 μl 2-propanol:heptane 7:1. Radioactive triolein product was separated into the organic phase by adding 300 μl heptane and 100 μl 0.1 M carbonate buffer pH 9.5. DGAT1 activity was quantified by counting aliquots of the upper heptane layer by liquid scintillography.
The IC50 is the concentration at which inhibition is half-maximal. In turn, `Cc1c(Cl)cccc1-c1ccc(N2CCOc3ncnc(N)c3C2=O)cc1` [Example 6, 4-amino-6-(3′-chloro-2′-methylbiphenyl-4-yl)-7,8-dihydropyrimido[5,4-f][1,4]oxazepin-5(6H)-one] showed a half-maximal inhibitory concentration (IC50) of 400 nM.
With `Cc1cc(Cl)ccc1-c1ccc(N2CCOc3ncnc(N)c3C2=O)cc1` [Example 7, 4-amino-6-(4′-chloro-2′-methylbiphenyl-4-yl)-7,8-dihydropyrimido[5,4-f][1,4]oxazepin-5(6H)-one], the IC50 is 80 nM.
Molecule `Cc1ccc(Cl)cc1-c1ccc(N2CCOc3ncnc(N)c3C2=O)cc1` [Example 8, 4-amino-6-(5′-chloro-2′-methylbiphenyl-4-yl)-7,8-dihydropyrimido[5,4-f][1,4]oxazepin-5(6H)-one] gave a half-maximal inhibitory concentration (IC50) of 70 nM.
The same measure, in the same setting: the result for `N#Cc1ccc(Cl)cc1-c1ccc(N2CCOc3ncnc(N)c3C2=O)cc1` [Example 14, 4′-(4-amino-5-oxo-7,8-dihydropyrimido[5,4-f][1,4]oxazepin-6(5H)-yl)-5-chlorobiphenyl-2-carbonitrile] reads 100 nM.
Molecule `N#Cc1c(Cl)cccc1-c1ccc(N2CCOc3ncnc(N)c3C2=O)cc1` [Example 15, 4′-(4-amino-5-oxo-7,8-dihydropyrimido[5,4-f][1,4]oxazepin-6(5H)-yl)-3-chlorobiphenyl-2-carbonitrile] came in with a half-maximal inhibitory concentration (IC50) of 240 nM.
On the same count and under the same terms, the result for `Nc1ncnc2c1C(=O)N(c1ccc(-c3ccc(S(N)(=O)=O)cc3Cl)cc1)CCO2` [Example 18, 4′-(4-Amino-5-oxo-7,8-dihydropyrimido[5,4-f][1,4]oxazepin-6(5H)-yl)-2-chlorobiphenyl-4-sulfonamide] reads 40 nM; that for `N#Cc1cc(Cl)ccc1-c1ccc(N2CCOc3ncnc(N)c3C2=O)cc1` [Example 22, 4′-(4-Amino-5-oxo-7,8-dihydropyrimido[5,4-f][1,4]oxazepin-6(5H)-yl)-4-chlorobiphenyl-2-carbonitrile], 50 nM.

The assay is the same for the next values; noted with them: human DGAT1 expressed in sf9 insect cell membranes; Examples 25 to 59; rounded to 2 decimal places.
In the case of `Nc1ncnc2c1C(=O)N(c1ccc(-c3cccc(F)c3F)cc1)CCO2` [Example 25, 4-Amino-6-(2′,3′-difluorobiphenyl-4-yl)-7,8-dihydropyrimido[5,4-f][1,4]oxazepin-5(6H)-one], the IC50 worked out at 320 nM.
Consider `Nc1ncnc2c1C(=O)N(c1ccc(-c3cc(F)ccc3F)cc1)CCO2` [Example 26, 4-Amino-6-(2′,5′-difluorobiphenyl-4-yl)-7,8-dihydropyrimido[5,4-f][1,4]oxazepin-5(6H)-one], for which the IC50 was determined as 110 nM.
Molecule `Nc1ncnc2c1C(=O)N(c1ccc(-c3ccc(Cl)cc3F)cc1)CCO2` [Example 27, 4-Amino-6-(4′-chloro-2′-fluorobiphenyl-4-yl)-7,8-dihydropyrimido[5,4-f][1,4]oxazepin-5(6H)-one] came in with an IC50 of 40 nM.
The same measure, in the same setting: the result for `Nc1ncnc2c1C(=O)N(c1ccc(-c3cc(F)c(F)cc3F)cc1)CCO2` [Example 28, 4-Amino-6-(2′,4′,5′-trifluorobiphenyl-4-yl)-7,8-dihydropyrimido[5,4-f][1,4]oxazepin-5(6H)-one] reads 130 nM.
For the molecule `Nc1ncnc2c1C(=O)N(c1ccc(-c3ccc(F)cc3F)cc1)CCO2` [Example 29, 4-Amino-6-(2′,4′-difluorobiphenyl-4-yl)-7,8-dihydropyrimido[5,4-f][1,4]oxazepin-5(6H)-one], half-maximal inhibition (IC50) was put at 60 nM.
`Cc1nc(N)c2c(n1)OCCN(c1ccc(-c3ccccc3Cl)cc1)C2=O` [Example 42, 4-Amino-6-(2′-chlorobiphenyl-4-yl)-2-methyl-7,8-dihydropyrimido[5,4-f][1,4]oxazepin-5(6H)-one] had an IC50 of 90 nM.
The molecule `Cc1nc(N)c2c(n1)OCCN(c1ccc(-c3ccc(CNS(C)(=O)=O)cc3Cl)cc1)C2=O` [Example 43, N-((4′-(4-amino-2-methyl-5-oxo-7,8-dihydropyrimido[5,4-f][1,4]oxazepin-6(5H)-yl)-2-chlorobiphenyl-4-yl)methyl)methanesulfonamide] had an IC50 of 100 nM.
`C[C@@H]1CN(c2ccc(-c3ccccc3Cl)cc2)C(=O)c2c(N)ncnc2O1` [Example 44, (R)-4-Amino-6-(2′-chlorobiphenyl-4-yl)-8-methyl-7,8-dihydropyrimido[5,4-f][1,4]oxazepin-5(6H)-one] returned a half-inhibitory concentration (IC50) of 20 nM.
For the molecule `C[C@@H]1CN(c2ccc(-c3ccc(CNS(C)(=O)=O)cc3Cl)cc2)C(=O)c2c(N)ncnc2O1` [Example 45, (R)—N-((4′-(4-amino-8-methyl-5-oxo-7,8-dihydropyrimido[5,4-f][1,4]oxazepin-6(5H)-yl)-2-chlorobiphenyl-4-yl)methyl)methanesulfonamide], the IC50 was found to be 60 nM.
The molecule `C[C@@H]1CN(c2ccc(-c3ccccc3F)cc2)C(=O)c2c(N)ncnc2O1` [Example 46, (R)-4-amino-6-(2′-fluorobiphenyl-4-yl)-8-methyl-7,8-dihydropyrimido[5,4-f][1,4]oxazepin-5(6H)-one] showed an IC50 of 20 nM.
Still for that read-out and setting: next, `C[C@@H]1CN(c2ccc(-c3ccc(CN(C)S(C)(=O)=O)cc3Cl)cc2)C(=O)c2c(N)ncnc2O1` [Example 47, (R)—N-((4′-(4-amino-8-methyl-5-oxo-7,8-dihydropyrimido[5,4-f][1,4]oxazepin-6(5H)-yl)-2-chlorobiphenyl-4-yl)methyl)-N-methylmethanesulfonamide]: 50 nM; `C[C@@H]1CN(c2ccc(-c3ccc(CS(C)(=O)=O)cc3Cl)cc2)C(=O)c2c(N)ncnc2O1` [Example 48, (R)-4-Amino-6-(2′-chloro-4′-(methylsulfonylmethyl)biphenyl-4-yl)-8-methyl-7,8-dihydropyrimido[5,4-f][1,4]oxazepin-5(6H)-one]: 60 nM.
On the same count and under the same terms, next, `C[C@@H]1CN(c2ccc(-c3c(F)cccc3F)cc2)C(=O)c2c(N)ncnc2O1` [Example 49, (R)-4-amino-6-(2′,6′-difluorobiphenyl-4-yl)-8-methyl-7,8-dihydropyrimido[5,4-f][1,4]oxazepin-5(6H)-one]: 20 nM; `C[C@@H]1CN(c2ccc(-c3ccc(Cl)cc3C#N)c(F)c2)C(=O)c2c(N)ncnc2O1` [Example 50, (R)-4′-(4-Amino-8-methyl-5-oxo-7,8-dihydropyrimido[5,4-f][1,4]oxazepin-6(5H)-yl)-4-chloro-2′-fluorobiphenyl-2-carbonitrile]: 40 nM; `C[C@@H]1CN(c2ccc(-c3ccc(C#N)cc3Cl)c(F)c2)C(=O)c2c(N)ncnc2O1` [Example 51, (R)-4′-(4-Amino-8-methyl-5-oxo-7,8-dihydropyrimido[5,4-f][1,4]oxazepin-6(5H)-yl)-2-chloro-2′-fluorobiphenyl-4-carbonitrile]: 20 nM.
`C[C@@H]1CN(c2ccc(-c3c(Cl)cccc3C#N)c(F)c2)C(=O)c2c(N)ncnc2O1` [Example 52, 4′-((R)-4-Amino-8-methyl-5-oxo-7,8-dihydropyrimido[5,4-f][1,4]oxazepin-6(5H)-yl)-6-chloro-2′-fluorobiphenyl-2-carbonitrile] returned an IC50 of 70 nM.
Same read-out and setting: the result for `C[C@@H]1CN(c2ccc(-c3ccc(F)cc3F)c(F)c2)C(=O)c2c(N)ncnc2O1` [Example 53, (R)-4-Amino-8-methyl-6-(2,2′,4′-trifluorobiphenyl-4-yl)-7,8-dihydropyrimido[5,4-f][1,4]oxazepin-5(6H)-one] reads 20 nM; that for `C[C@@H]1CN(c2ccc(-c3ccccc3F)c(F)c2)C(=O)c2c(N)ncnc2O1` [Example 54, (R)-4-Amino-6-(2,2′-difluorobiphenyl-4-yl)-8-methyl-7,8-dihydropyrimido[5,4-f][1,4]oxazepin-5(6H)-one], 20 nM; that for `C[C@@H]1CN(c2ccc(-c3ccccc3Cl)c(F)c2)C(=O)c2c(N)ncnc2O1` [Example 55, (R)-4-Amino-6-(2′-chloro-2-fluorobiphenyl-4-yl)-8-methyl-7,8-dihydropyrimido[5,4-f][1,4]oxazepin-5(6H)-one], 10 nM.
On the same count and under the same terms, the result for `C[C@@H]1CN(c2ccc(-c3c(F)cccc3Cl)c(F)c2)C(=O)c2c(N)ncnc2O1` [Example 56, (8R)-4-amino-6-(2′-chloro-2,6′-difluorobiphenyl-4-yl)-8-methyl-7,8-dihydropyrimido[5,4-f][1,4]oxazepin-5(6H)-one] reads 10 nM; that for `C[C@@H]1CN(c2ccc(-c3c(F)cccc3F)c(F)c2)C(=O)c2c(N)ncnc2O1` [Example 57, (R)-4-amino-8-methyl-6-(2,2′,6′-trifluorobiphenyl-4-yl)-7,8-dihydropyrimido[5,4-f][1,4]oxazepin-5(6H)-one], 20 nM.

The assay is the same for the next values; noted with them: human DGAT1 expressed in sf9 insect cell membranes; usually mean of 2 measurements.
In the case of `Nc1ncnc2c1C(=O)N(c1ccc(-c3ccc(S(N)(=O)=O)cc3Cl)cc1)CCO2` [Example 4, 4′-(4-Amino-5-oxo-7,8-dihydropyrimido[5,4-f][1,4]oxazepin-6(5H)-yl)-2-chlorobiphenyl-4-sulfonamide], half-maximal inhibition (IC50) was put at 35 nM.

These data come from patent US20110251173A1, “CHEMICAL COMPOUNDS” (AstraZeneca AB, priority 2010, published 2011).
